Entries after “also recorded” stand apart in the source; their conditions may differ. Like-named read-outs stand apart in the source and are kept apart here. Ends that are not written are not given here.
How the values were obtained:
[1] = system: K562, MCF-7 and MDA-MB-231 cultures; assay: Complement-mediated cytotoxicity, overall statements across cell lines; format: cell-based; conditions: peptide, then anti-CXCR4 antibody and NHS
Protocol: (§1) Therefore, it was of interest to see whether SMR peptide driven mortalin sequestration and functional disruption increases cell sensitivity to complement-induced cell death. Accordingly, MCF-7, MDA-MB-231, and K562 cells were treated with 280 nM PEG-SMRwt-Clu peptide or 560 nM SMRwt-CPP peptide alone for 60 min at 37° C., followed by treatment with 1 μg/mL anti-CXCR4 antibody and 50 μL normal human serum (NHS; as a source of complement) or normal heat-inactivated (human) serum (NIS) for an additional 60 min at 37° C. (FIG. 8). PEG-SMRmut-Clu peptide and SMRmut-CPP peptide were used as negative controls. The percentage of stained (dead) cells was determined by trypan blue exclusion and is representative of 3 independent experiments.
(§2) To further validate the ability of mortalin neutralization to render or enhance complement-mediated cytotoxicity, MCF-7, MDA-MB-231 and K562 cells were transfected with vectors expressing mortalin siRNAs or negative control siRNAs, incubated for 72 hours at 37° C., treated with anti-CXCR4 antibody for 30 minutes at 4° C. followed by incubation with either NHS or NIS for 60 minutes at 37° C.

K562 cells [2] = assay: Western blot analysis of EV protein content; format: cell-based; conditions: 48 hours treatment
Protocol: (§3) 1.3. EV isolation and purification. EVs were isolated from cells by differential centrifugation as previously described (Ali SA. et al., 2010). Untreated cells were used as a control. Briefly, the above treated and untreated cell culture supernatants were centrifuged at 400×g for 10 minutes. The supernatants were transferred to a clear tube and centrifuged at 10,000×g for 30 minutes. The supernatants from the second spin were […] ultracentrifuged at 200,000×g for 2 hours to pellet the EVs. Finally, the EV pellets were re-suspended with PBS and stored at 4° C. until used for analysis.
(§4) 1.6. Western blot analysis. EVs were isolated from culture supernatants as described above. Protein concentrations were determined by measuring absorbance at 280 nm (Nanodrop 2000). Protein samples were denatured in SDS-PAGE sample buffer by heating at 95° C. for 15 min. Criterion TGX Precast Gels (4-20% Bio-Rad, Richmond, CA) were used to separate the proteins and blotted as previously described (Huang MB. et al 2004). Blots were incubated with the primary antibodies, anti-CD63 and anti-Alix, followed by goat or rabbit anti-Ig secondary antibodies. Specific bands were detected using ECL chemiluminescent substrate (Santa Cruz Biotechnology, Santa Cruz, CA) and visualized on the ImageQuant LAS 4000 imaging system (GE Healthcare, Piscataway, NJ 08854).
(§5) Western blot analysis was used to examine the effects of the SMRwt peptides, PEG-SMRwt-Clu peptide and SMRwt-CPP peptide, and the mortalin inhibitors MKT-077, Omeprazole, and DMA on EV protein content in MCF-7, MDA-MB-231 and K562 cells. Negative control treatments included the PEG-SMRmut-Clu peptide, […] (SEQ ID NO: 49) and the SMRmut-CPP peptide, […] (SEQ ID NO: 50). EVs were isolated from all treated and untreated cell lines screened. Western blot analyses were carried out to evaluate the expression levels of the exosomal proteins, Alix, mortalin, and vimentin in MCF-7 cells (FIG. 7, Panel A, left sub-panel), MDA-MB-231 cells (FIG. 7, Panel A, middle sub-panel), and K562 cells (FIG. 7, Panel A, right sub-panel).

MCF-7 cells [3] = assay: Western blot analysis of EV protein content; format: cell-based; conditions: 48 hours treatment; for Alix expression in EVs / Vimentin expression in EVs: relative to negative controls
Protocol: as §3, §4, §5

MDA-MB-231 cells [4] = assay: Western blot analysis of EV protein content; format: cell-based; conditions: 48 hours treatment
Protocol: as §3, §4, §5

MCF-7 cells [5] = assay: Acetylcholinesterase (AchE) assay of exosome/EV release; format: cell-based; conditions: for average AChE concentrations throughout days 1 to day 5 / AchE concentrations on day 3 / AchE concentrations, initial increase: MCF-7 cells; for average AChE concentrations throughout days 1 to day 5: five-day treatment at 37° C.; for AchE concentrations on day 3 / AchE concentrations, initial increase: five-day treatment; for AchE concentrations on day 3: mock 69.15; for AchE concentrations, initial increase: initial increase on days 1 and/or 2, mock 155.13
Protocol: as §3
(§6) 1.4. Exosome characterization by acetylcholinesterase (AchE) assay. Purified EVs were quantitated by measurement of AchE as described (Ellman et al., 1961). Briefly, a 100 mM dithibionitrobenzoic (DTNB) solution was prepared for use as a stock color indicator, and a 28.9 mg/mL acetylthiocholine iodide in PBS solution was prepared as a stock substrate. The stock substrate stock can be stored at −20° C. up to one month, while the color indicator can be stored at 4° C. for two weeks. A working solution was prepared by mixing 10 mL of PBS with 200 μL of Substrate and 500 μl of DTNB. 50 μL of each exosome sample was transferred to 96 well microtitre plates, and a standard curve was prepared using AchE from 0.98 mU/mL to 2000 mU/mL. After 50 μL of standards were added into separate wells, 200 μL of the working solution was added to all wells. After 20 min incubation, AchE activity was measured at 450 nm using a SpectroMax M5 fluorimeter.

MDA-MB-231 cells [6] = assay: as above; format: cell-based; conditions: for average AChE concentration levels throughout day 1 to 5 / AChE on day 1 (initial increase): MDA-MB-231 cells; for average AChE concentration levels throughout day 1 to 5: five-day treatment at 37° C.; for AChE on day 1 (initial increase): five-day treatment, mock 146.52
Protocol: as §3, §6

[7] = system: MCF-7, MDA-MB-231 and K562 cells; assay: Exosome/EV release, overall statements across cell lines (AchE, NanoSight, Western blot); format: cell-based; conditions: for exosome/EV release (number of EVs released): MCF-7, MDA-MB-231 and K562 cells, five days at 37° C., AchE assay
Protocol: Acetylcholinesterase (AchE) assays, NanoSight analysis and Western blot analysis were performed to characterize EVs released from MCF-7 and MDA-MB-231 cells treated for 48 hr with the various peptides.
To further examine the underlying mechanism for blocking exosome release, a study was extended to examine the effects of the SMRwt peptides, PEG-SMRwt-Clu peptide and SMRwt-CPP peptide, and the mortalin inhibitors MKT-077, Omeprazole, and DMA on exosome release. In particular, acetylcholinesterase (AchE) assays, NanoSight analysis and Western blot analysis were performed to characterize EVs released from MCF-7, MDA-MB-231 and K562 cells. Panels A, B and C depict the relative numbers of EVs released as a function of time as measured by an acetylcholinesterase (AchE) assay in MCF-7 cells (FIG. 6, Panel A); MDA-MB-231 cells (FIG. 6, Panel B); and K562 cells (FIG. 6, Panel C).

MCF-7 cells [8] = assay: NanoSight nanoparticle tracking analysis (NTA) of released EVs; format: cell-based; conditions: MCF-7 cells treated for 48 hr; untreated control 5.16×10^9 particles/ml
Protocol: as §3
(§7) 1.5. EV nanoparticle tracking analysis (NTA). Analysis of absolute size distribution of EVs was performed using NanoSight LM10 with NTA2.3 (NanoSight Ltd., Minton Park, UK). EV particles were automatically tracked and sized based on Brownian motion and the diffusion coefficient. After isolation, the untreated and treated EVs were re-suspended in 0.5 mL of PBS. Control medium and filtered PBS were used as controls in this technique. The NTA measurement conditions were: temperature=21.0+/−0.5° C.; viscosity=0.99+/−0.01 cP; frames per second=25; measurement time=30 s. The detection threshold was similar in all samples. […]

MDA-MB-231 cells [9] = assay: as above; format: cell-based; conditions: MDA-MB-231 cells treated for 48 hr; control media 4.7×10^9 particles/ml
Protocol: as §3, §7

[10] = system: MCF-7, MDA-MB-231 and K562 cells; conditions: previously shown (Huang et al., Oncotarget (2017)); cited from earlier work
K562 cells [11] = assay: Complement-mediated cytotoxicity (anti-CXCR4 antibody plus NHS or NIS, trypan blue exclusion); format: cell-based; conditions: 280 nM PEG-SMRwt-Clu or 560 nM SMRwt-CPP
Protocol: as §1, §2

MCF-7 cells [12] = assay: as above; format: cell-based; conditions: 280 nM PEG-SMRwt-Clu or 560 nM SMRwt-CPP
Protocol: as §1, §2

MDA-MB-231 cells [13] = assay: as above; format: cell-based; conditions: 280 nM PEG-SMRwt-Clu or 560 nM SMRwt-CPP
Protocol: as §1, §2

[14] = then anti-CXCR4 antibody and NHS

| Compound | Alix expression in EVs (K562 cells [2]) | Mortalin expression in EVs (K562 cells [2]) | Vimentin expression in EVs (K562 cells [2]) | Mortalin expression in EVs (MCF-7 cells [3]) | Alix expression in EVs (MCF-7 cells [3]) | Vimentin expression in EVs (MCF-7 cells [3]) | Vimentin expression in EVs (MDA-MB-231 cells [4]) | average AChE concentrations throughout days 1 to day 5 (MCF-7 cells [5]) | average AChE concentration levels throughout day 1 to 5 (MDA-MB-231 cells [6]) | exosome/EV release (number of EVs released) [7] | Mortalin expression in EVs (MDA-MB-231 cells [4]) | further results |
| --- | --- | --- | --- | --- | --- | --- | --- | --- | --- | --- | --- | --- |
| VGFPVAAVGFPVGRKKRRQRRRPPQ [SMRwt-CPP] | – | – | – | – | – | – | – | – | – | – | – | complement-mediated cytotoxicity / cell death in the presence of NHS [1]: induce complement-mediated cytotoxicity |
| CN(C)c1nc(N)c(C(=O)NC(=N)N)nc1Cl [DMA, 5-(N,N-Dimethyl)amiloride] | significantly decreased | significantly decreased | significantly increased | no significant changes | not accompanied by significant reductions | significantly decreased | significantly decreased | 26 mU/mL | 37 mU/mL | reduced the number of EVs released; also recorded: blocked exosome release | – | – |
| COc1ccc2[nH]c([S+]([O-])Cc3ncc(C)c(OC)c3C)nc2c1 (stereo not drawn) [Omeprazole, 5-Methoxy-2-[[(4-methoxy-3,5-dimethyl-2-pyridinyl)methyl]sulfinyl]-1H-benzimidazole] | significantly decreased | significantly decreased | significantly increased | no significant changes | not accompanied by significant reductions | significantly decreased | no significant change | 26 mU/mL | 25 mU/mL | reduced the number of EVs released; also recorded: blocked exosome release | No significant change | – |
| CCn1c(=Cc2cccc[n+]2CC)sc(=C2Sc3ccccc3N2C)c1=O.[Cl-] [MKT-077, 1-Ethyl-2-[[3-ethyl-5-(3-methyl-2(3H)-benzothiazolylidene)-4-oxo-2-thiazolidinylidene]methyl]-pyridinium chloride] | significantly decreased | significantly decreased | significantly increased | significantly decreased | significantly decreased | significantly decreased | no significant change | 22 mU/mL | 29 mU/mL | reduced the number of EVs released; also recorded: blocked exosome release | No significant change | – |
| VGFPVAAVGFPVHPLSKHPYWSQP (SEQ ID NO: 47) [PEG-SMRwt-Clu] | significantly decreased | significantly decreased | – | significantly decreased | significantly decreased | significantly decreased | significantly decreased | 31 mU/mL | 42 mU/mL | reduced the number of EVs released; also recorded: blocked exosome release | significantly decreased | Alix expression in EVs (MDA-MB-231 cells [4]): significantly decreased; complement-mediated cytotoxicity / cell death in the presence of NHS [1]: induce complement-mediated cytotoxicity; number of particles (NTA) (MCF-7 cells [8]): 3.28×10^8 particles/mL; number of particles (NTA) (MDA-MB-231 cells [9]): 6.8×10^8 particles/mL; exosome release [10]: block exosome release; AchE activity in EVs (MCF-7 cells [5]; MCF-7 cells treated for 48 hr, control EVs 113.49 mU/mL): 41.95 mU/mL; AchE activity in EVs (MDA-MB-231 cells [6]; MDA-MB-231 cells treated for 48 hr, control EVs 118.48 mU/mL): 66.77 mU/mL; cell death under complement-negative conditions (K562 cells [11]; 60 min): 4.3%; cell death under complement-positive conditions (K562 cells [11]; [14]): 55%; cell death under complement-negative conditions (MCF-7 cells [12]; 60 min): 2.1%; cell death under complement-positive conditions (MCF-7 cells [12]; [14]): 26%; cell death under complement-negative conditions (MDA-MB-231 cells [13]; 60 min): 3.6%; cell death under complement-positive conditions (MDA-MB-231 cells [13]; [14]): 76%; exosome release ([7]; MCF-7 and MDA-MB-231 cells treated for 48 hr): blocks exosome release |
| AGFPVAAAGFPVGRKKRRQRRRPPQ (SEQ ID NO: 50) (Synthetic SMRmut-CPP) | – | – | – | – | – | – | – | – | – | – | – | AchE concentrations on day 3 (MCF-7 cells [5]): 66.05 mU/mL; AchE concentrations, initial increase (MCF-7 cells [5]): 150.06 mU/mL; AChE on day 1 (initial increase) (MDA-MB-231 cells [6]): 141.47 mU/mL |
| NXNAGFPVAAAGFPVHPLSKHPYWSQP (SEQ ID NO: 49) [PEG-SMRmut-Clu] | – | – | – | – | – | – | – | – | – | – | – | AchE concentrations on day 3 (MCF-7 cells [5]): 69.0 mU/mL; AchE concentrations, initial increase (MCF-7 cells [5]): 151.5 mU/mL; AChE on day 1 (initial increase) (MDA-MB-231 cells [6]): 146.79 mU/mL |
